In patent US9981964B2 (Agency for Science, Technology and Research, priority 2013, dated 2018):

System: HEK293-STF3A cells
Assay: STF3A assay (STF luciferase reporter in Wnt3A-expressing HEK293 cells)
Assay type: cell-based
Conditions: Homo sapiens, 24 h, 1 day of treatment
Summary of the method: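 HEK293 cells carrying the STF reporter and expressing Wnt3A, seeded 2×10^4 per well overnight, then treated 1 day with compound at final 50 μM to 1.5 nM. Luciferase activity read by luminescence after Steady-Glo reagent, 10 min at room temperature.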

SMILES | IC50 [nM]
O=C(CN1CCCC2=C1C(=O)N(C1CC1)C2=O)Nc1ccc(-c2cncc(F)c2)nc1 [Compound 87, 2-(6-cyclopropyl-5,7-dioxo-2,3,4,5,6,7-hexahydro-1H-pyrrolo[3,4-b]pyridin-1-yl)-N-(5′-fluoro-[2,3′-bipyridin]-5-yl)acetamide] | < 100
CN1C(=O)C2=C(C1=O)N(CC(=O)Nc1ccc(-c3nccs3)cc1)CCC2 [Compound 2, 2-(6-methyl-5,7-dioxo-2,3,4,5,6,7-hexahydro-1H-pyrrolo[3,4-b]pyridin-1-yl)-N-(4-(thiazol-2-yl)phenyl)acetamide] | < 100
CN1C(=O)C2=C(C1=O)N(CC(=O)Nc1ccc(-c3ccccc3)cc1F)CCC2 [Compound 83, N-(3-fluorobiphenyl-4-yl)-2-(6-methyl-5,7-dioxo-2,3,4,5,6,7-hexahydro-1H-pyrrolo[3,4-b]pyridin-1-yl)acetamide] | < 100
O=C(CN1CCCC2=C1C(=O)N(C1CC1)C2=O)Nc1ncc(-c2cccnc2)cc1F [Compound 107, 2-(6-cyclopropyl-5,7-dioxo-2,3,4,5,6,7-hexahydro-1H-pyrrolo[3,4-b]pyridin-1-yl)-N-(5-fluoro-[3,3′-bipyridin]-6-yl)acetamide] | < 1000
CN1C(=O)C2=C(C1=O)N(CC(=O)Nc1ccc(-c3cccnc3)cn1)CCC2 [Compound 8, N-([3,3′-bipyridin]-6-yl)-2-(6-methyl-5,7-dioxo-2,3,4,5,6,7-hexahydro-1H-pyrrolo[3,4-b]pyridin-1-yl)acetamide] | < 100
O=C(CN1CCCC2=C1C(=O)N(C1CC1)C2=O)Nc1ccc(-c2cncnc2)cc1 [Compound 90, 2-(6-cyclopropyl-5,7-dioxo-2,3,4,5,6,7-hexahydro-1H-pyrrolo[3,4-b]pyridin-1-yl)-N-(4-(pyrimidin-5-yl)phenyl)acetamide] | < 100
O=C(CN1CCCC2=C1C(=O)N(C1CC1)C2=O)Nc1ccc(-c2ccccn2)cn1 [Compound 16, N-([2,3′-bipyridin]-6′-yl)-2-(6-cyclopropyl-5,7-dioxo-2,3,4,5,6,7-hexahydro-1H-pyrrolo[3,4-b]pyridin-1-yl)acetamide] | < 100
COc1cc(NC(=O)CN2CCCC3=C2C(=O)N(C)C3=O)ccc1-c1ccccc1 [Compound 99, N-(2-methoxy-[1,1′-biphenyl]-4-yl)-2-(6-methyl-5,7-dioxo-2,3,4,5,6,7-hexahydro-1H-pyrrolo[3,4-b]pyridin-1-yl)acetamide] | < 10000
O=C(CN1CCCC2=C1C(=O)N(C1CCC1)C2=O)Nc1ccc(-c2ccccc2)nn1 [Compound 38, 2-(6-cyclobutyl-5,7-dioxo-2,3,4,5,6,7-hexahydro-1H-pyrrolo[3,4-b]pyridin-1-yl)-N-(6-phenylpyridazin-3-yl)acetamide] | < 100
CN1C(=O)C2=C(C1=O)N(CC(=O)Nc1ccc(-c3nccs3)cn1)CCC2 [Compound 6, 2-(6-methyl-5,7-dioxo-2,3,4,5,6,7-hexahydro-1H-pyrrolo[3,4-b]pyridin-1-yl)-N-(5-(thiazol-2-yl)pyridin-2-yl)acetamide] | < 100
CN1C(=O)C2=C(C1=O)N(CC(=O)Nc1ncc(-c3ccccc3)cn1)CCC2 [Compound 36, 2-(6-methyl-5,7-dioxo-2,3,4,5,6,7-hexahydro-1H-pyrrolo[3,4-b]pyridin-1-yl)-N-(5-phenylpyrimidin-2-yl)acetamide] | < 100
O=C(CN1CCCC2=C1C(=O)N(C1CC1)C2=O)Nc1ccc(-c2ccc(F)cn2)cn1 [Compound 127, 2-(6-cyclopropyl-5,7-dioxo-2,3,4,5,6,7-hexahydro-1H-pyrrolo[3,4-b]pyridin-1-yl)-N-(5-fluoro-[2,3′-bipyridin]-6′-yl)acetamide] | < 100
O=C(CN1CCCC2=C1C(=O)N(C1CC1)C2=O)Nc1ccc(-c2ccccc2)cc1 [Compound 67, N-([1,1′-biphenyl]-4-yl)-2-(6-cyclopropyl-5,7-dioxo-2,3,4,5,6,7-hexahydro-1H-pyrrolo[3,4-b]pyridin-1-yl)acetamide] | < 100
C[C@H](C(=O)Nc1ccc(-c2cccnc2)cn1)N1CCCC2=C1C(=O)N(C)C2=O (single isomer, unassigned) [Compound 93] | < 1000
O=C(CN1CCCC2=C1C(=O)N(C1CC1)C2=O)Nc1ccc(-c2ccc(F)nc2)nn1 [Compound 69, 2-(6-cyclopropyl-5,7-dioxo-2,3,4,5,6,7-hexahydro-1H-pyrrolo[3,4-b]pyridin-1-yl)-N-(6-(6-fluoropyridin-3-yl)pyridazin-3-yl)acetamide] | < 100
Cc1cc(-c2cccnc2)ncc1NC(=O)CN1CCCC2=C1C(=O)N(C1CC1)C2=O [Compound 140, 2-(6-cyclopropyl-5,7-dioxo-2,3,4,5,6,7-hexahydro-1H-pyrrolo[3,4-b]pyridin-1-yl)-N-(4-methyl-2,3′-bipyridin-5-yl)acetamide] | < 10000
O=C(CN1CCCC2=C1C(=O)N(C1CC1)C2=O)Nc1ccc(-c2ccc(OC(F)(F)F)cc2)nn1 [Compound 57, 2-(6-cyclopropyl-5,7-dioxo-2,3,4,5,6,7-hexahydro-1H-pyrrolo[3,4-b]pyridin-1-yl)-N-(6-(4-(trifluoromethoxy)phenyl)pyridazin-3-yl)acetamide] | < 1000

SMILES | IC50 [nM]
Cc1cncc(-c2ccc(NC(=O)CN3CCCC4=C3C(=O)N(C)C4=O)nc2)c1 [Compound 148, 2-(6-methyl-5,7-dioxo-2,3,4,5,6,7-hexahydro-1H-pyrrolo[3,4-b]pyridin-1-yl)-N-(5′-methyl-[3,3′-bipyridin]-6-yl)acetamide] | < 100
Cc1cnc(-c2ccc(NC(=O)CN3CCCC4=C3C(=O)N(C3CC3)C4=O)nc2)cn1 [Compound 157, 2-(6-cyclopropyl-5,7-dioxo-2,3,4,5,6,7-hexahydro-1H-pyrrolo[3,4-b]pyridin-1-yl)-N-(5-(5-methylpyrazin-2-yl)pyridin-2-yl)acetamide] | < 100
CC(C(=O)Nc1ccc(-c2ccccn2)cn1)N1CCCC2=C1C(=O)N(C)C2=O (stereo not shown) [Compound 17, N-([2,3′-bipyridin]-6′-yl)-2-(6-methyl-5,7-dioxo-2,3,4,5,6,7-hexahydro-1H-pyrrolo[3,4-b]pyridin-1-yl)propanamide] | < 100
CN1C(=O)C2=C(C1=O)N(CC(=O)Nc1cc(F)c(-c3cccnc3)cn1)CCC2 [Compound 155, N-(4-fluoro-3,3′-bipyridin-6-yl)-2-(6-methyl-5,7-dioxo-2,3,4,5,6,7-hexahydro-1H-pyrrolo[3,4-b]pyridin-1-yl)acetamide] | < 100
O=C(CN1CCCC2=C1C(=O)N(C1CC1)C2=O)Nc1ccc(-c2cccc(OC(F)(F)F)c2)nn1 [Compound 56, 2-(6-cyclopropyl-5,7-dioxo-2,3,4,5,6,7-hexahydro-1H-pyrrolo[3,4-b]pyridin-1-yl)-N-(6-(3-(trifluoromethoxy)phenyl)pyridazin-3-yl)acetamide] | < 1000
O=C(CN1CCCC2=C1C(=O)N(C1CC1)C2=O)Nc1ccc(-c2cncnc2)cn1 [Compound 89, 2-(6-cyclopropyl-5,7-dioxo-2,3,4,5,6,7-hexahydro-1H-pyrrolo[3,4-b]pyridin-1-yl)-N-(5-(pyrimidin-5-yl)pyridin-2-yl)acetamide] | < 100
CN1C(=O)C2=C(C1=O)N(CC(=O)Nc1ccc(-c3ccccc3)nn1)CCC2 [Compound 3, 2-(6-methyl-5,7-dioxo-2,3,4,5,6,7-hexahydro-1H-pyrrolo[3,4-b]pyridin-1-yl)-N-(6-phenylpyridazin-3-yl)acetamide] | < 100
CN1C(=O)C2=C(C1=O)N(CC(=O)Nc1ccc(-c3ccccc3)cn1)CCC2 [Compound 5, 2-(6-methyl-5,7-dioxo-2,3,4,5,6,7-hexahydro-1H-pyrrolo[3,4-b]pyridin-1-yl)-N-(5-phenylpyridin-2-yl)acetamide] | < 100
O=C(CN1CCCC2=C1C(=O)N(C1CC1)C2=O)Nc1ccc(-c2cccnc2)nc1 [Compound 59, N-(2,3′-bipyridin-5-yl)-2-(6-cyclopropyl-5,7-dioxo-2,3,4,5,6,7-hexahydro-1H-pyrrolo[3,4-b]pyridin-1-yl)acetamide] | < 100
Cc1cccc(-c2ccc(NC(=O)CN3CCCC4=C3C(=O)N(C)C4=O)nn2)c1 [Compound 29, 2-(6-methyl-5,7-dioxo-2,3,4,5,6,7-hexahydro-1H-pyrrolo[3,4-b]pyridin-1-yl)-N-(6-(m-tolyl)pyridazin-3-yl)acetamide] | < 100
Cc1ccncc1-c1ccc(NC(=O)CN2CCCC3=C2C(=O)N(C2CC2)C3=O)nc1 [Compound 111, 2-(6-cyclopropyl-5,7-dioxo-2,3,4,5,6,7-hexahydro-1H-pyrrolo[3,4-b]pyridin-1-yl)-N-(4′-methyl-[3,3′-bipyridin]-6-yl)acetamide] | < 1000
CN1C(=O)c2c(n(CC(=O)Nc3ccc(-c4cccnc4)nn3)ccc2=O)C1=O [Compound 64, 2-(6-methyl-4,5,7-trioxo-4,5,6,7-tetrahydro-1H-pyrrolo[3,4-b]pyridin-1-yl)-N-(6-(pyridin-3-yl)pyridazin-3-yl)acetamide] | < 1000
CN1C(=O)C2=C(C1=O)N(CC(=O)Nc1ccc(-c3ncccn3)cc1)CCC2 [Compound 74, 2-(6-methyl-5,7-dioxo-2,3,4,5,6,7-hexahydro-1H-pyrrolo[3,4-b]pyridin-1-yl)-N-(4-(pyrimidin-2-yl)phenyl)acetamide] | < 1000
CC(C(=O)Nc1cc(F)c(-c2cccnc2)cn1)N1CCCC2=C1C(=O)N(C)C2=O (stereo not shown) [Compound 119, N-(4-fluoro-3,3′-bipyridin-6-yl)-2-(6-methyl-5,7-dioxo-2,3,4,5,6,7-hexahydro-1H-pyrrolo[3,4-b]pyridin-1-yl)propanamide] | < 100
CC(C(=O)Nc1ccc(-c2cccnc2F)cn1)N1CCCC2=C1C(=O)N(C)C2=O (stereo not shown) [Compound 97, N-(2′-fluoro-3,3′-bipyridin-6-yl)-2-(6-methyl-5,7-dioxo-2,3,4,5,6,7-hexahydro-1H-pyrrolo[3,4-b]pyridin-1-yl)propanamide] | < 100
Cc1cnc(-c2ccc(NC(=O)CN3CCCC4=C3C(=O)N(C)C4=O)nc2)cn1 [Compound 132, 2-(6-methyl-5,7-dioxo-2,3,4,5,6,7-hexahydro-1H-pyrrolo[3,4-b]pyridin-1-yl)-N-(5-(5-methylpyrazin-2-yl)pyridin-2-yl)acetamide] | < 100
Cc1ccc(-c2cnc(NC(=O)CN3CCCC4=C3C(=O)N(C)C4=O)cn2)cn1 [Compound 35] | < 1000
